Results published in the kinase profiling compilation of Christmann-Franck et al. (2016).

Experiments:
Assay in all cases: Caliper, Mobility shift assay off-chip
SGK1 (human) = SGK1 (human) (UniProt O00141); settings: compound 10.0 µM
AURKC (human) = AURKC (human) (UniProt Q9UQB9); settings: compound 10.0 µM
DYRK1A (rat) = settings: compound 10.0 µM; accession and sequence are those of the human protein
CSNK1A1 (rat) = settings: compound 10.0 µM; accession and sequence are those of the human protein
NTRK3 (human) = NTRK3 (human) (UniProt Q16288); settings: compound 10.0 µM
CDK4 (human) = CDK4 (human) (UniProt P11802); settings: compound 10.0 µM
PAK1 (human) = PAK1 (human) (UniProt Q13153); settings: compound 10.0 µM
PRKAA1 (human) = PRKAA1 (human) (UniProt Q13131); settings: compound 10.0 µM
[1] = system: RPS6KB1 (human), P23443 [T412E]; settings: compound 10.0 µM
CDC7 (human) = CDC7 (human) (UniProt O00311); settings: compound 10.0 µM
MAP3K8 (human) = MAP3K8 (human) (UniProt P41279); settings: compound 10.0 µM
ERBB2 (human) = ERBB2 (human) (UniProt P04626); settings: compound 10.0 µM
MARK4 (human) = MARK4 (human) (UniProt Q96L34); settings: compound 10.0 µM
PBK (human) = PBK (human) (UniProt Q96KB5); settings: compound 10.0 µM
MAP3K14 (human) = MAP3K14 (human) (UniProt Q99558); settings: compound 10.0 µM
PRKDC (human) = PRKDC (human) (UniProt P78527); settings: compound 10.0 µM
MAP2K1 (rabbit) = settings: compound 10.0 µM; accession and sequence are those of the human protein
BRAF (human) = BRAF (human) (UniProt P15056); settings: compound 10.0 µM
CSNK2A1 (human) = CSNK2A1 (human) (UniProt P68400); settings: compound 10.0 µM
PHKG1 (rabbit) = settings: compound 10.0 µM; accession and sequence are those of the human protein
[2] = system: RET (human), P07949 [V804L]
[3] = system: ABL1 (human), P00519 [M351T]
ULK3 (human) = ULK3 (human) (UniProt Q6PHR2)
TAOK1 (human) = TAOK1 (human) (UniProt Q7L7X3)
ULK2 (human) = ULK2 (human) (UniProt Q8IYT8)
CLK2 (human) = CLK2 (human) (UniProt P49760)
BLK (mouse) = settings: accession and sequence are those of the human protein
MAP2K4 (mouse) = settings: compound 10.0 µM; accession and sequence are those of the human protein
TEC (human) = TEC (human) (UniProt P42680); settings: compound 10.0 µM
ABL1 (mouse) = settings: compound 1.0 µM; accession and sequence are those of the human protein
MYLK (human) = MYLK (human) (UniProt Q15746); settings: compound 1.0 µM
CSNK1A1 (human) = CSNK1A1 (human) (UniProt P48729); settings: compound 1.0 µM
PIK3CD (human) = PIK3CD (human) (UniProt O00329); settings: compound 1.0 µM
PIK3CB (human) = PIK3CB (human) (UniProt P42338); settings: compound 1.0 µM
CSNK1A1 (yeast) = CSNK1A1 (yeast) (UniProt P48729); settings: compound 1.0 µM; accession and sequence are those of the human protein
LYN (mouse) = settings: compound 1.0 µM; accession and sequence are those of the human protein
PIK3CG (human) = PIK3CG (human) (UniProt P48736); settings: compound 1.0 µM
MAPK3 (human) = MAPK3 (human) (UniProt P27361); settings: compound 1.0 µM
ABL2 (mouse) = settings: compound 1.0 µM; accession and sequence are those of the human protein

Sequence of ULK3 (human) (Q6PHR2 whole entry, looked up): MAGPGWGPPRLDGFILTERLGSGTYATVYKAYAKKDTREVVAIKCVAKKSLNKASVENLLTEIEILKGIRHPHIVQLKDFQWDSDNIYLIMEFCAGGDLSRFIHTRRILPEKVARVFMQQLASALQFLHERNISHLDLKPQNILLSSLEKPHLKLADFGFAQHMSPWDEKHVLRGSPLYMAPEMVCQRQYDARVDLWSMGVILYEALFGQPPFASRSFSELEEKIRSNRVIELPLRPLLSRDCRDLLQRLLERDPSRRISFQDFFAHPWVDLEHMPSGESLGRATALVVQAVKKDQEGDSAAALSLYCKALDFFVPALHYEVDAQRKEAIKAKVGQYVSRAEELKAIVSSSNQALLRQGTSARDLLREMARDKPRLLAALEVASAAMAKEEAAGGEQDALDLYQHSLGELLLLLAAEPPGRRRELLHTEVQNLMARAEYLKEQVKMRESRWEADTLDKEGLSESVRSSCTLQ
Sequence of RET (human), P07949 [V804L] (P07949 whole entry V804L, looked up): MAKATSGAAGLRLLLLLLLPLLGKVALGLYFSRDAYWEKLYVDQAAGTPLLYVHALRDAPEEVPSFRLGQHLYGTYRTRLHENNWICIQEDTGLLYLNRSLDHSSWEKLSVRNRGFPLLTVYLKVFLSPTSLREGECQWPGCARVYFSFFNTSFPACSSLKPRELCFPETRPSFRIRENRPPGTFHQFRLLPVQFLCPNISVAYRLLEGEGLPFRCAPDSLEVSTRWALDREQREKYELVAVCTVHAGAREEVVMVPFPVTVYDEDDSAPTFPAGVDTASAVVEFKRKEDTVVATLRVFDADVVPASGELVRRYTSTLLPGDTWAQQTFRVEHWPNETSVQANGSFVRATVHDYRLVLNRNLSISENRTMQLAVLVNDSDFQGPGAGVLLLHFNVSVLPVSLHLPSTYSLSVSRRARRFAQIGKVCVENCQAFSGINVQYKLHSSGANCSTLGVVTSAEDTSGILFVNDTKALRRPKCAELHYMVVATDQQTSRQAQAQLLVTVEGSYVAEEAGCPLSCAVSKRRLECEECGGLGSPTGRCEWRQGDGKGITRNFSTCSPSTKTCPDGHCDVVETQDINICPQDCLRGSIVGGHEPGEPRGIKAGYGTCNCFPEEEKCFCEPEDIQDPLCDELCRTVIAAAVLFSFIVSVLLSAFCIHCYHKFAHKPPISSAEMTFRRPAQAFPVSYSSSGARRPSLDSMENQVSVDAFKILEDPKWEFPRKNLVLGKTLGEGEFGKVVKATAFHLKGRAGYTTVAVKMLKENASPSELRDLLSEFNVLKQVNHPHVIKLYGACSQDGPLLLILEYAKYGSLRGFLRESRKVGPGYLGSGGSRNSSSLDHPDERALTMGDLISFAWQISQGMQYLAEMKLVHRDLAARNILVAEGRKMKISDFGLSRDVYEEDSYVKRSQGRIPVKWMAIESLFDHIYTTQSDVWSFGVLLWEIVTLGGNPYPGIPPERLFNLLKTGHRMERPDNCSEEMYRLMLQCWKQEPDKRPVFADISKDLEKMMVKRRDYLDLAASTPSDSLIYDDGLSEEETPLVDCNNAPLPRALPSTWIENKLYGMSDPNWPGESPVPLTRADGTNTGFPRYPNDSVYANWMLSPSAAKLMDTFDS
Sequence of ULK2 (human) (Q8IYT8 whole entry, looked up): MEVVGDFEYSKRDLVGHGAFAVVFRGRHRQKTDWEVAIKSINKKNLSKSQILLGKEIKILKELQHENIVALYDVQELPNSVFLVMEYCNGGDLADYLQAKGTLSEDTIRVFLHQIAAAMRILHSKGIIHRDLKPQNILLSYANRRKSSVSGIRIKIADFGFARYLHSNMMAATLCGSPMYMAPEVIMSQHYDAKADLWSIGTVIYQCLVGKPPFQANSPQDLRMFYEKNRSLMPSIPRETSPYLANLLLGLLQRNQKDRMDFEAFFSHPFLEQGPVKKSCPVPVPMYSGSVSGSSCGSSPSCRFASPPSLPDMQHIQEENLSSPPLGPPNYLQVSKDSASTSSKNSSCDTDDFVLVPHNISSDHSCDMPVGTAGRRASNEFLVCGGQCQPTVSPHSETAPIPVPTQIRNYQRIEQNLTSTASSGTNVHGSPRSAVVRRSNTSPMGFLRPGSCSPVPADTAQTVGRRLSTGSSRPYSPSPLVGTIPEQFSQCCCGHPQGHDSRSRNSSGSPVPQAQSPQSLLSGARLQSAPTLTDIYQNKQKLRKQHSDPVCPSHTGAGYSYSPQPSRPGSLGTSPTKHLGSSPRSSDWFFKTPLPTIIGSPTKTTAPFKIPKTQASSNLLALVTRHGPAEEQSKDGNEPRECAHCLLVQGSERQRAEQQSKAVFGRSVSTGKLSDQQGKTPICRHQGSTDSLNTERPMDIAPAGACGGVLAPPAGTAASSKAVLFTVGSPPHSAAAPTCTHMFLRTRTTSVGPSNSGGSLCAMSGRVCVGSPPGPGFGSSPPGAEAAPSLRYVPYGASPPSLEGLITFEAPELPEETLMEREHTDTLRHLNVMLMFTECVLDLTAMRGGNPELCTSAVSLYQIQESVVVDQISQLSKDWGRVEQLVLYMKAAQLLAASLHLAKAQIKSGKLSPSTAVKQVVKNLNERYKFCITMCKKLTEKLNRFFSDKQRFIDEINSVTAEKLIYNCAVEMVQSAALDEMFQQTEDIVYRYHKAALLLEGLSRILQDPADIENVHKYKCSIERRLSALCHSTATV
Sequence of CLK2 (human) (P49760 whole entry, looked up): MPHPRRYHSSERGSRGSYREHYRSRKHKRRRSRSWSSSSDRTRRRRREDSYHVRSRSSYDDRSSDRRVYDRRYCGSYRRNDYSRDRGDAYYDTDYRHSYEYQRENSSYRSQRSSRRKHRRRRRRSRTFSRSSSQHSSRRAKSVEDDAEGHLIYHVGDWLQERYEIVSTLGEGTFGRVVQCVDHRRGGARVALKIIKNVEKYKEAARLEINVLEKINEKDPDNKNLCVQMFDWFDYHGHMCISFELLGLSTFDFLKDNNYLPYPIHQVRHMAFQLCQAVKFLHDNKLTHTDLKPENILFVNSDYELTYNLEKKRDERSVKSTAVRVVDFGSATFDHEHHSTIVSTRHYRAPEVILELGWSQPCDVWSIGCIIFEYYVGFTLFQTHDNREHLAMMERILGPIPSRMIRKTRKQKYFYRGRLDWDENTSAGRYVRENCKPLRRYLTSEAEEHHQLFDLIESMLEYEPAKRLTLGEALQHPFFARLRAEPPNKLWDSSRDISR
Sequence of TAOK1 (human) (Q7L7X3 whole entry, looked up): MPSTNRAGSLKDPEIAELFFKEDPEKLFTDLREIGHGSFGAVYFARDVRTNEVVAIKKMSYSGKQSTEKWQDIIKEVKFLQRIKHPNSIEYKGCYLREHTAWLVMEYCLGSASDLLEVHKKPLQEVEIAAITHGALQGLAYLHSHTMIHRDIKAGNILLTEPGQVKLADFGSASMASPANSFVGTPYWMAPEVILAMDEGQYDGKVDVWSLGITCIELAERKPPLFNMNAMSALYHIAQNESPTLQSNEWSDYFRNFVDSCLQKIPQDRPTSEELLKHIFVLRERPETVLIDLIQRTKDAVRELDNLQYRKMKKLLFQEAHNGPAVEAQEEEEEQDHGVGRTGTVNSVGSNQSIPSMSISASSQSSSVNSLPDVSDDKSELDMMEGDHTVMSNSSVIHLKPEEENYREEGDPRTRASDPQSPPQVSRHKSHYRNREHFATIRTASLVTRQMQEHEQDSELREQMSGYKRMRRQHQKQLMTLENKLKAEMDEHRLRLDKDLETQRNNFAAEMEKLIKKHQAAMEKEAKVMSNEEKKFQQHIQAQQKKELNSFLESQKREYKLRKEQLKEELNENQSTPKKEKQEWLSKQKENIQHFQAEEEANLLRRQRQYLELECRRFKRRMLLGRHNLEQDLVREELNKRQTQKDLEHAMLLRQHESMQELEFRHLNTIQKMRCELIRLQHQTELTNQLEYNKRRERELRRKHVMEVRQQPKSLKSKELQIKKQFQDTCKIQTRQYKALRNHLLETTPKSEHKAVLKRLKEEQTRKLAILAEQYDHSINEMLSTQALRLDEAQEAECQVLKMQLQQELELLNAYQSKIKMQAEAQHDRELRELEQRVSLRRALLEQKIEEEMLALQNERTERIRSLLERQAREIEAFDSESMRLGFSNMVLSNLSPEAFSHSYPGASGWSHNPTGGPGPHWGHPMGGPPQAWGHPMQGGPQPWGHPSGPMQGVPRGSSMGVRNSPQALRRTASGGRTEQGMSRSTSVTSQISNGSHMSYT
Sequence of AURKC (human) (Q9UQB9 whole entry, looked up): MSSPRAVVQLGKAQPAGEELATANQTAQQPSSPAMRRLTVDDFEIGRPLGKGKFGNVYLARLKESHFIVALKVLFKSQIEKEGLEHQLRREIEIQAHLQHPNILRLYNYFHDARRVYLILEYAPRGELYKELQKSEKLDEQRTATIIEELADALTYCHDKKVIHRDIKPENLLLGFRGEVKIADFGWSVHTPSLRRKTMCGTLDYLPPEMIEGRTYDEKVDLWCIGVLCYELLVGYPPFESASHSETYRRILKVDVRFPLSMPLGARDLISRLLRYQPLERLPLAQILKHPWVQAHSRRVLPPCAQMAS
Sequence of CSNK2A1 (human) (P68400 whole entry, looked up): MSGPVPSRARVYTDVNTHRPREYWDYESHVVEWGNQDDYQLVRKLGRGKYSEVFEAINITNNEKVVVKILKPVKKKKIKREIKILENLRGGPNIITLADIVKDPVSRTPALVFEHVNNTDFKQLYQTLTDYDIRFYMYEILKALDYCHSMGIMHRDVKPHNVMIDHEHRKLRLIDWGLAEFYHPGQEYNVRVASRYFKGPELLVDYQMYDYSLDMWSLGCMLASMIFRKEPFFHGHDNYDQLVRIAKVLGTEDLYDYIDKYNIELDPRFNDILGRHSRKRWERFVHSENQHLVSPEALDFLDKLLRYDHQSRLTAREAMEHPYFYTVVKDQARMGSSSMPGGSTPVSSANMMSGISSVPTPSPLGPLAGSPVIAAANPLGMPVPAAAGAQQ

CC(C)(C)c1nc2c3ccc(F)cc3c3c(=O)[nH]ccc3c2[nH]1 showed a residual activity (SGK1 (human)) of 3%, a residual activity (AURKC (human)) of 4% and a residual activity (DYRK1A (rat)) of 64%. The residual activity (CSNK1A1 (rat)) was 59%, the residual activity (NTRK3 (human)) was 2% and the residual activity (CDK4 (human)) was 21%. For the same molecule, the residual activity (PAK1 (human)) was 73%, the residual activity (PRKAA1 (human)) was 5% and the residual activity [1] was 11%. It also gave a residual activity (CDC7 (human)) of 70%, a residual activity (MAP3K8 (human)) of 87% and a residual activity (ERBB2 (human)) of 130%. It also gave a residual activity (MARK4 (human)) of 25%, a residual activity (PBK (human)) of 10% and a residual activity (MAP3K14 (human)) of 92%. The residual activity (PRKDC (human)) was 97%, the residual activity (MAP2K1 (rabbit)) was 30% and the residual activity (BRAF (human)) was 114%. For the same molecule, the residual activity (CSNK2A1 (human)) was 71% and the residual activity (PHKG1 (rabbit)) was 6%.
C[C@@H](Nc1nc2c(C#CC3CC3)c[nH]c(=O)c2c2cc(-c3cn[nH]c3)ccc12)C(C)(C)C was tested, and the residual activity ([2]; compound 1.0 µM) was 2%, the residual activity ([3]; compound 1.0 µM) was 50% and the residual activity (ULK3 (human); compound 1.0 µM) was 47%. It also gave a residual activity (TAOK1 (human); compound 1.0 µM) of 95%, a residual activity (ULK2 (human); compound 1.0 µM) of 30% and a residual activity (CLK2 (human); compound 1.0 µM) of 67%.
With O=C(N[C@@H](COc1ccc2[nH]c(=O)[nH]c2c1)c1ccccc1)c1cccn(Cc2ccc(F)c(F)c2)c1=O the residual activity ([2]; compound 10.0 µM) was 112%, the residual activity (BLK (mouse); compound 10.0 µM) was 94% and the residual activity ([3]; compound 10.0 µM) was 110%. The residual activity (ULK3 (human); compound 10.0 µM) was 99%, the residual activity (TAOK1 (human); compound 10.0 µM) was 96% and the residual activity (ULK2 (human); compound 10.0 µM) was 110%. For the same molecule, the residual activity (CLK2 (human); compound 10.0 µM) was 100%, the residual activity (MAP2K4 (mouse)) was 112% and the residual activity (TEC (human)) was 91%.
In the case of Cc1n[nH]c2c1c(=O)n(CCCN)c1ccc(Cl)cc21, the residual activity (ABL1 (mouse)) is reported as 98%, the residual activity (MYLK (human)) is reported as 68% and the residual activity (CSNK1A1 (human)) is reported as 111%. The residual activity (PIK3CD (human)) was 95%, the residual activity (PIK3CB (human)) was 100% and the residual activity (CSNK1A1 (yeast)) was 69%. It also gave a residual activity (BLK (mouse); compound 1.0 µM) of 92%, a residual activity (LYN (mouse)) of 69% and a residual activity (PIK3CG (human)) of 116%. It also gave a residual activity (MAPK3 (human)) of 89% and a residual activity (ABL2 (mouse)) of 110%.
